PMC7228038 (Journal of medicinal chemistry, 2019)

Legend:
[1] = Oxidative metabolic stability in murine microsomes; conditions: for CLint scaled at 0.8 µM: mouse, microsomes
DCN1-UBE2M interaction = DCN1-UBE2M interaction (Homo sapiens, UniProt Q96GG9); test: biochemical; type: binding; conditions: for Activity in TR-FRET binding assay, in words: maximum tested concentration 15 μM, values in Supplementary Tables
HCC95 cells = conditions: dose-response up to 30 μM, 5 hours
DCN2 = DCN2 (Homo sapiens, UniProt Q6PH85); test: Pulse-chase assay of NEDD8 transfer, DCN2 stimulated; type: biochemical; conditions: 10 μM; NEDD8 transfer from UBE2M to CUL2
DCN5 = biological target: T1, DCN5 (Homo sapiens, UniProt Q9BTE7); test: Pulse-chase assay of NEDD8 transfer, DCN5 stimulated; type: biochemical; conditions: 10 μM; NEDD8 transfer from UBE2M to CUL2
T1 sequence (Q9BTE7 1-237): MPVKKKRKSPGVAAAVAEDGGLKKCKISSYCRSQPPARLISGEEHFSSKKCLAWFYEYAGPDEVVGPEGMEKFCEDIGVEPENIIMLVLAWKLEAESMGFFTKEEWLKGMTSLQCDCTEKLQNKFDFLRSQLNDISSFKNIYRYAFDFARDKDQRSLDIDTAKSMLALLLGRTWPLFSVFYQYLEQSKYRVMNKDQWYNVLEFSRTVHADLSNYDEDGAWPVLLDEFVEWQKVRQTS

DCN3 = biological target: T2, DCN3 (Homo sapiens, UniProt Q8IWE4); test: Pulse-chase assay of NEDD8 transfer, DCN3 stimulated; type: biochemical; conditions: 10 μM; NEDD8 transfer from UBE2M to CUL2
T2 sequence (Q8IWE4 1-304): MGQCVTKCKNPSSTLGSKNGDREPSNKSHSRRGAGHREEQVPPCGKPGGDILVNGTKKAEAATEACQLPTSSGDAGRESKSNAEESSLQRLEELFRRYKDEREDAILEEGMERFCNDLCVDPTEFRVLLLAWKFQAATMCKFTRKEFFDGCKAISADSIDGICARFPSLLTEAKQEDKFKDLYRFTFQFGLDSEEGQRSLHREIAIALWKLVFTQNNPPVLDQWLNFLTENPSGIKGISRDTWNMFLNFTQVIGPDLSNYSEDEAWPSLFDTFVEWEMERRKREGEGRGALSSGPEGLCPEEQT

DCN4 = biological target: T3, DCN4 (Homo sapiens, UniProt Q92564); test: Pulse-chase assay of NEDD8 transfer, DCN4 stimulated; type: biochemical; conditions: 10 μM; NEDD8 transfer from UBE2M to CUL2
T3 sequence (Q92564 1-292): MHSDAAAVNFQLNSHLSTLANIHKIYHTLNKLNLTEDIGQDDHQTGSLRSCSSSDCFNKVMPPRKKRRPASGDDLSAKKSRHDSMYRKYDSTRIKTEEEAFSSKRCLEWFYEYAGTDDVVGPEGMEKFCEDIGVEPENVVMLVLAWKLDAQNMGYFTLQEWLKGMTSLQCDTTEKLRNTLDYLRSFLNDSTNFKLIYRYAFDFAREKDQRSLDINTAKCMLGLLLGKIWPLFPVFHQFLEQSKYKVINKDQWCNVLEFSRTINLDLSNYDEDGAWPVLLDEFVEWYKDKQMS

[2] = test system: cullin neddylation in CAL33 cells; conditions: 10 μM (MLN4924 1 μM), 48 hours, most pronounced on CUL1 and CUL3
[3] = test system: cullin neddylation in HCC95 cells; conditions: 10 μM (MLN4924 1 μM), 48 hours, most pronounced on CUL1 and CUL3

Sequence of DCN1-UBE2M interaction (Q96GG9 whole entry): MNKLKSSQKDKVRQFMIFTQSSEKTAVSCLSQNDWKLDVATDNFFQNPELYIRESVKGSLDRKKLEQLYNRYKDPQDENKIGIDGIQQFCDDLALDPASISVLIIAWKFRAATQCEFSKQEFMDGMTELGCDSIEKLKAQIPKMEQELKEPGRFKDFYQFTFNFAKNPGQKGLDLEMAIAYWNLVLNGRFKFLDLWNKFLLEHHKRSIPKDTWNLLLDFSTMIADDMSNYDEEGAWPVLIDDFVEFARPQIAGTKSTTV
Sequence of DCN2 (Q6PH85 whole entry): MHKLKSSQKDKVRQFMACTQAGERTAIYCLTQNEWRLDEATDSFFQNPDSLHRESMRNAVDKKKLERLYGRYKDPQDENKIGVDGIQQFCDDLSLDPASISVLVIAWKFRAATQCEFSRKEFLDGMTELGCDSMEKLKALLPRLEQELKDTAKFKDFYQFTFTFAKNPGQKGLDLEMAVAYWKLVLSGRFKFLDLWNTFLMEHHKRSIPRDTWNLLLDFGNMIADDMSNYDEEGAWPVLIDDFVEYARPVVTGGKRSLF

In the case of `Cc1cccc(C(=O)N[C@@H]2C(=O)Nc3c(c(C)nn3-c3ccccc3)[C@@H]2c2ccc(F)cc2)c1` (racemic) [Compound 3], the CLint scaled at 0.8 µM [1] is reported as 50.3 ± 5 mL/min/kg and the “Murine microsomal stability compared with that previously reported for NAcM-OPT” value ([1]; murine microsomes, relative to NAcM-OPT) is reported as at most 2 fold.
Compound `Cc1cccc(C(=O)N[C@@H]2C(=O)Nc3c(c(C)nn3C3CCCC3)[C@@H]2c2ccc(F)cc2)c1` (racemic) [Compound 24] has a CLint scaled at 0.8 µM [1] of 116 ± 10.7 mL/min/kg.
With `CCn1nc(C)c2c1NC(=O)[C@@H](NC(=O)c1cccc(C)c1)[C@H]2c1ccc(F)cc1` (racemic) [Compound 65] the “Activity in TR-FRET binding assay, in words” value (shortened to “Activity”) (DCN1-UBE2M interaction) was “roughly equipotent to the phenyl derivative (3)” and the CLint scaled at 0.8 µM [1] was 89.7 ± 4.7 mL/min/kg.
In the case of `Cc1cccc(C(=O)N[C@H]2C(=O)Nc3c(c(C)nn3-c3ccccc3)[C@@H]2c2ccc(F)cc2)c1` (racemic) [Compound 87, N-((4S,5R)-4-(4-fluorophenyl)-3-methyl-6-oxo-1-phenyl-4,5,6,7-tetrahydro-1H-pyrazolo[3,4-b]pyridin-5-yl)-3-methylbenzamide], the “Activity” value (DCN1-UBE2M interaction) is reported as “inactive” and the “Effect on reactive oxygen species (DCFDA)” value (HCC95 cells) is reported as “neither 27, 87, nor NAcM-OPT have any measurable effects on reactive oxygen species”.
For `Cc1ccc([C@H]2c3c(C)nn(-c4ccccc4)c3NC(=O)[C@H]2NC(=O)c2cccc(C)c2)cc1` (relative stereo) [Compound 1, 3-methyl-N-(rel-(4S,5S)-3-methyl-6-oxo-1-phenyl-4-(p-tolyl)-4,5,6,7-tetrahydro-1H-pyrazolo[3,4-b]pyridin-5-yl)benzamide], the CLint scaled at 0.8 µM [1] was 160 ± 5 mL/min/kg.
With `CCN1C(=O)[C@@H](NC(=O)c2cccc(C)c2)[C@@H](c2ccc(F)cc2)c2c(C)nn(-c3ccccc3)c21` (relative stereo) [Compound 27, N-(rel-(4S,5S)-7-ethyl-4-(4-fluorophenyl)-3-methyl-6-oxo-1-phenyl-4,5,6,7-tetrahydro-1H-pyrazolo[3,4-b]pyridin-5-yl)-3-methylbenzamide] the CLint scaled at 0.8 µM [1] was 44.9 ± 3.7 mL/min/kg, the “Inhibition of DCN2 stimulated cullin neddylation (pulse-chase)” value (DCN2) was “inhibiting” and the “Inhibition of DCN5 stimulated cullin neddylation (pulse-chase)” value (DCN5) was “not inhibited”. For the same compound, the “Inhibition of DCN3 stimulated cullin neddylation (pulse-chase)” value (DCN3) was “not inhibited” and the “Inhibition of DCN4 stimulated cullin neddylation (pulse-chase)” value (DCN4) was “not inhibited”.
`Cc1nn(-c2ccccc2)c2c1[C@H](c1ccc(F)cc1)[C@H](NC(=O)c1cccc(C(F)(F)F)c1)C(=O)N2` [Compound 11] showed an IC50 (DCN1-UBE2M interaction) of 3.5 ± 0.5 µM.
In the case of `Cc1cccc(NC(=O)[C@@H]2C(=O)Nc3c(c(C)nn3-c3ccccc3)[C@@H]2c2ccc(F)cc2)c1` [Compound 128], the “Activity” value (DCN1-UBE2M interaction) is reported as “not tolerated”.
For `Cc1nn(-c2ccccc2)c2c1[C@H](c1ccc(F)cc1)[C@H](C(=O)Nc1ccc(Cl)c(Cl)c1)C(=O)N2` [Compound 131], the “Activity” value (DCN1-UBE2M interaction) was “not tolerated”.
For `NS(=O)(=O)OC[C@@H]1C[C@@H](n2ccc3c(N[C@H]4CCc5ccccc54)ncnc32)C[C@@H]1O` [MLN4924], the “Inhibition of steady-state cullin neddylation (immunoblot), CAL33” value [2] was “complete blockade of neddylation” and the “Inhibition of steady-state cullin neddylation (immunoblot), HCC95” value [3] was “complete blockade of neddylation”.
With `CCCCN1CCC(N(Cc2ccccc2)C(=O)Nc2ccc(Cl)c(Cl)c2)CC1` [NAcM-OPT, reference compound] the “Effect on reactive oxygen species (DCFDA)” value (HCC95 cells) was “neither 27, 87, nor NAcM-OPT have any measurable effects on reactive oxygen species”.
